Results as given in patent publication US10308615B2, “Heterocyclic compounds as inhibitors of Vanin-1 enzyme” (Pfizer Inc., priority 2015, dated 2019).

How the values were obtained:
Format in all cases: biochemical
[1] = molecular target: T1, human vanin-1 (Homo sapiens (Human), UniProt O95497); experiment: Human Vanin-1 Enzyme Assay 1; settings: 25 pM human vanin-1, 50 uM pantetheine 7-amino-4-trifluoromethylcoumarin, 30 min preincubation, 60 min
Procedure, shortened: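 Purified His6/FLAG-tagged extracellular domain of human vanin-1, secreted from CHO cells, at 25 pM final in 50 mM Tris-HCl pH 8.0, 50 mM KCl, 0.005% Brij-35, 1.6 mM cysteamine, 0.5% DMSO. Inhibitor preincubated 30 min at room temperature; 50 uM pantetheine-AFC substrate, 60 min, fluorescence at 405/510 nm; 11-point four-fold dilution series.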

[2] = molecular target: T1, human vanin-1; experiment: Human Vanin-1 Enzyme Assay 2; settings: 1 nM human vanin-1, 10 uM substrate, 45 min
Procedure: Human Vanin-1 Enzyme Assay 2.
The in vitro assay measures enzymatic cleavage of the fluorescently-labeled vanin substrate, pantetheine 7-amino-4-trifluoromethylcoumarin, by human vanin-1.
The vanin-1 protein was prepared in-house from a construct expressing the extracellular domain of human vanin-1 (GenBank ID NM_004666) preceded N-terminally by the honey bee melittin signal peptide, a GSG linker sequence, a His6X tag and a FLAG tag. The secreted, soluble enzyme was purified from the conditioned medium from a CHO cell line stably expressing the resulting protein. Enzyme purification was performed through sequential Ni NTA and size-exclusion chromatography steps.
On the day of the assay, dose response plates were prepared by diluting the inhibitors in DMSO at compound concentration 100-fold the final in-assay concentration. Concentration series were prepared by serially diluting in DMSO in a half-log series for a total of 11 data points. Intermediate compound plates containing compound in 10% DMSO were then created by diluting the compounds 10-fold in assay buffer consisting of 50 mM Tris-HCl pH=8.0, 50 mM KCl, 0.005% Brij-35 and 1.5 mM cysteamine. To begin the assay 3 μL were transferred from the intermediate compound plate to the assay plate.
A working solution of human vanin-1 was prepared by diluting the enzyme stock to 1.25 nM in assay buffer. Next, 24 μL of the vanin-1 working solution were transferred to the assay plate. The enzyme reaction was then initiated by the addition of 3 μL of 100 μM pantetheine 7-amino-4-trifluoromethylcoumarin prepared in assay buffer. The final concentrations in the assay were 1 nM human vanin-1 and 10 uM substrate. The final concentration of DMSO was 1%. The assay plates were incubated for 45 minutes and before they were read on a Spectramax M5 using a 405 nm excitation wavelength and a 505 nm emission wavelength for detection.

[3] = molecular target: T1, human vanin-1; experiment: Human Vanin-1 Enzyme Assay 3; settings: 2 nM human vanin-1, 10 uM substrate, 15 min
Procedure, shortened: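 His/FLAG-tagged extracellular domain of human vanin-1 from CHO cells, used at 2 nM final, with 10 uM pantetheine-AFC substrate. Buffer: 50 mM Tris-HCl pH 8.0, 50 mM KCl, 0.005% Brij-35, 1.5 mM cysteamine, 1% DMSO. 15 min at room temperature; fluorescence read at 405/505 nm across an 11-point 2-fold dilution series.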

T1 sequence (O95497 22-491): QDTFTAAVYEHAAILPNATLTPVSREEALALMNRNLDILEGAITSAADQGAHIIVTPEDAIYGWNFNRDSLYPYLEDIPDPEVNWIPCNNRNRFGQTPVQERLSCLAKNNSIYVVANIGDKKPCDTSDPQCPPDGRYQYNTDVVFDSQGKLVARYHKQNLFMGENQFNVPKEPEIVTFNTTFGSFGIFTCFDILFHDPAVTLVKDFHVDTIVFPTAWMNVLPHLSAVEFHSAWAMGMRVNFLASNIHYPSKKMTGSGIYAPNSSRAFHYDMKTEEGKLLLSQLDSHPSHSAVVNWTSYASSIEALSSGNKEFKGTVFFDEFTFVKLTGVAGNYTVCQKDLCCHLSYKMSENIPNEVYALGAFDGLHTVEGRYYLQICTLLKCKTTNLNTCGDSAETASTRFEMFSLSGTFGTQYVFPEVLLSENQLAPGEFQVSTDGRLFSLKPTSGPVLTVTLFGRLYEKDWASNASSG

IC50 [1] [nM] | IC50 [2] [nM] | IC50 [3] [nM] | Structure (SMILES)
22.4 | 21 | – | N#Cc1cccc(C(=O)c2cnc(NCc3cnc(N)nc3)nc2)c1 [Example 4, 3-[(2-{[(2-aminopyrimidin-5-yl)methyl]amino}pyrimidin-5-yl)carbonyl]benzonitrile]
3.4 | 9.8 | – | N#Cc1cccc(C(=O)c2cnc(NC3(c4cnccn4)CC3)nc2)c1 [Example 5, 3-[(2-{[1-(pyrazin-2-yl)cyclopropyl]amino}pyrimidin-5-yl)carbonyl]benzonitrile]
37.3 | 24.8 | – | N#Cc1cccc(C(=O)c2cnc(NCc3ccc(N)nc3)nc2)c1 [Example 6, 3-[(2-{[(6-aminopyridin-3-yl)methyl]amino}pyrimidin-5-yl)carbonyl]benzonitrile]
9.4 | 17 | – | CS(=O)(=O)c1cccc(C(=O)c2cnc(NCc3cncnc3)nc2)c1 [Example 20, [3-(methylsulfonyl)phenyl]{2-[(pyrimidin-5-ylmethyl)amino]pyrimidin-5-yl}methanone]
– | 226 | 77.2 | COc1cccc(C(=O)c2cnc(NCc3ccc(F)cc3)nc2)c1 [Example 37, {2-[(4-fluorobenzyl)amino]pyrimidin-5-yl}(3-methoxyphenyl) methanone]
188 | 86.2 | – | N#Cc1cccc(C(=O)c2cnc(NCc3cc[nH]c(=O)c3)nc2)c1 [Example 72, 3-[(2-{[(2-oxo-1,2-dihydropyridin-4-yl)methyl]amino}pyrimidin-5-yl)carbonyl] benzonitrile]
482 | 289 | – | N#Cc1cc(F)cc(C(=O)c2cnc(NCc3cncnc3)nc2)c1 [Example 130, 3-fluoro-5-({2-[(pyrimidin-5-ylmethyl)amino]pyrimidin-5-yl}carbonyl) benzonitrile]
541 | 370 | – | N#Cc1ccc(F)c(C(=O)c2cnc(NCc3cncnc3)nc2)c1 [Example 131, 4-fluoro-3-({2-[(pyrimidin-5-ylmethyl)amino]pyrimidin-5-yl}carbonyl) benzonitrile]
126 | 98.2 | – | Cc1ccc(C(=O)c2cnc(NCc3cncnc3)nc2)cc1C#N [Example 132, 2-methyl-5-({2-[(pyrimidin-5-ylmethyl)amino]pyrimidin-5-yl}carbonyl) benzonitrile]
259 | 100 | – | N#Cc1cc(C(=O)c2cnc(NCc3cncnc3)nc2)ccc1Cl [Example 134, 2-chloro-5-({2-[(pyrimidin-5-ylmethyl)amino]pyrimidin-5-yl}carbonyl) benzonitrile]
48.4 | 68.3 | – | N#Cc1cc(C(=O)c2cnc(NCc3cncnc3)nc2)ccc1F [Example 135, 2-fluoro-5-({2-[(pyrimidin-5-ylmethyl)amino]pyrimidin-5-yl}carbonyl) benzonitrile]
187 | 137 | – | NC(=O)c1cccc(C(=O)c2cnc(NCc3cncnc3)nc2)c1 [Example 136, 3-({2-[(pyrimidin-5-ylmethyl)amino]pyrimidin-5-yl}carbonyl) benzamide]
501 | 1010 | – | Cn1ncc2ccc(C(=O)c3cnc(NCc4cncnc4)nc3)cc21 [Example 137, (1-methyl-1H-indazol-6-yl){2-[(pyrimidin-5-ylmethyl)amino]pyrimidin-5-yl}methanone]
144 | 64.4 | – | N#Cc1cccc(C(=O)c2ccc(NCc3cncnc3)nc2)c1 [Example 140, 3-({6-[(pyrimidin-5-ylmethyl)amino]pyridin-3-yl}carbonyl) benzonitrile]
81.5 | 110 | – | COc1cccc(C(=O)c2cnc(NCc3cncnc3)nc2)c1 [Example 143, (3-methoxyphenyl) {2-[(pyrimidin-5-ylmethyl)amino]pyrimidin-5-yl}methanone]
2750 | 3080 | – | Cn1ncc2cc(C(=O)c3cnc(NCc4cncnc4)nc3)ccc21 [Example 159, (1-methyl-1H-indazol-5-yl){2-[(pyrimidin-5-ylmethyl)amino]pyrimidin-5-yl}methanone]
2880 | 2230 | – | N#Cc1cccc(C(=O)c2cnc(NCC3CCOCC3)nc2)c1 [Example 163, 3-({2-[(tetrahydro-2H-pyran-4-ylmethyl)amino]pyrimidin-5-yl}carbonyl) benzonitrile]
1810 | 8570 | – | CN1CCC(CNc2ncc(C(=O)c3cccc(C#N)c3)cn2)CC1 [Example 164, 3-[(2-{[(1-methylpiperidin-4-yl)methyl]amino}pyrimidin-5-yl)carbonyl] benzonitrile]

More lines, now with the values behind:

Structure (SMILES) | IC50 [1] [nM] | IC50 [2] [nM] | IC50 [3] [nM]
CC(Nc1ncc(C(=O)c2cccc(C#N)c2)cn1)c1ccc(C(N)=O)cc1 (single isomer, unassigned; (+)) [Example 10, (+)-4-(1-{[5-(3-cyanobenzoyl)pyrimidin-2-yl]amino}ethyl)benzamide] | > 20000 | > 10000 | –
CC(Nc1ncc(C(=O)c2cccc(C#N)c2)cn1)c1ccc(C(N)=O)cc1 (single isomer, unassigned; (-)) [Example 9, (−)-4-(1-{[5-(3-cyanobenzoyl)pyrimidin-2-yl]amino}ethyl)benzamide] | 10.3 | 41.3 | –
CS(=O)(=O)c1cccc(C(=O)c2cnc(NCc3cccnc3)nc2)c1 [Example 13, [3-(methylsulfonyl)phenyl]{2-[(pyridin-3-ylmethyl)amino]pyrimidin-5-yl}methanone] | – | 2 | > 26.1
O=C(c1cnc(NC2(c3cncnc3)CC2)nc1)c1cccc(C(F)(F)F)c1 [Example 16, (2-{[1-(pyrimidin-5-yl)cyclopropyl]amino}pyrimidin-5-yl)[3-(trifluoromethyl)phenyl]methanone] | 1.7 | 2.6 | –
CS(=O)(=O)c1cccc(C(=O)c2cnc(NC3(c4cncnc4)CC3)nc2)c1 [Example 17, [3-(methylsulfonyl)phenyl](2-{[1-(pyrimidin-5-yl)cyclopropyl]amino}pyrimidin-5-yl)methanone] | 0.8 | 1.8 | –
COc1cccc(C(=O)c2cnc(NC3(c4cncnc4)CC3)nc2)c1 [Example 18, (3-methoxyphenyl)(2-{[1-(pyrimidin-5-yl)cyclopropyl]amino}pyrimidin-5-yl)methanone] | 26.5 | 12.3 | –
CS(=O)(=O)c1cccc(C(=O)c2ccc(NCc3cncnc3)nc2)c1 [Example 19, [3-(methylsulfonyl)phenyl]{6-[(pyrimidin-5-ylmethyl)amino]pyridin-3-yl}methanone] | 1440 | 28.8 | –
O=C(c1cnc(NCc2cccnn2)nc1)c1cccc(C(F)(F)F)c1 [Example 67, {2-[(pyridazin-3-ylmethyl)amino]pyrimidin-5-yl}[3-(trifluoromethyl)phenyl]methanone] | – | 47.9 | 81.6
N#Cc1cccc(C(=O)c2cnc(NC3(c4ccccc4)CCC3)nc2)c1 [Example 129, 3-({2-[(1-phenylcyclobutyl)amino]pyrimidin-5-yl}carbonyl) benzonitrile] | 9.9 | 12.4 | –
COc1ccc(C(=O)c2cnc(NC(C)c3cncnc3)nc2)cc1 (stereo not shown) [Example 138, (4-methoxyphenyl) (2-{[1-(pyrimidin-5-yl)ethyl]amino}pyrimidin-5-yl)methanone] | 194 | 437 | –
COc1cccc(C(=O)c2cnc(NC(C)c3cncnc3)nc2)c1 (stereo not shown) [Example 142, (3-methoxyphenyl) (2-{[1-(pyrimidin-5-yl)ethyl]amino}pyrimidin-5-yl)methanone] | 17.1 | 34.3 | –
CC(Nc1ccc(C(=O)c2cccc(C#N)c2)cn1)c1cncnc1 (stereo not shown) [Example 144, 3-[(6-{[1-(pyrimidin-5-yl)ethyl]amino}pyridin-3-yl)carbonyl] benzonitrile] | 12.5 | 19.8 | –
O=C(c1cnc(NCc2cncnc2)nc1)c1ccc2c(c1)OCCO2 [Example 145, 2,3-dihydro-1,4-benzodioxin-6-yl{2-[(pyrimidin-5-ylmethyl)amino]pyrimidin-5-yl}methanone] | 329 | 486 | –
COc1ccc(C(=O)c2cnc(NC(C)c3ccc(C(N)=O)cc3)nc2)cc1 (stereo not shown) [Example 160, 4-(1-{[5-(4-methoxybenzoyl)pyrimidin-2-yl]amino}ethyl) benzamide] | 3440 | 7150 | –
